Experimental data published in patent US20070254019A1, “METHOD FOR TREATING BRAIN CANCER” (priority 2006, published 2007).

Tests used:
[1] = Plasma, tumor and tissue pharmacokinetic disposition of CKD-602 after single IV administration in mice bearing A375 tumors; format: in vivo
From the text: The objectives of the study were to evaluate the plasma, tumor, and tissue disposition of CKD-602 after a single intravenous (IV) administration of liposomes entrapped with CKD-602 and having an outer surface coating of methoxypolyethylene glycol (S-CKD602) and non-liposomal CKD-602 in female SCID mice bearing A375 human melanoma xenografts. New sample processing methods were developed to evaluate the encapsulated and released CKD-602 in plasma after administration of S-CKD602. Microdialysis methodology was used to evaluate the release of CKD-602 from S-CKD602 in tumor ECF.
Mice. All mice were handled in accordance with the Guide to the Care and Use of Laboratory Animals (National Research Council, 1996), and studies were approved by the Institutional Animal Care and Use Committee at the University of Pittsburgh Medical Center. Mice (female C.B-17 SCID,4-6 weeks of age, and specific pathogen free), were obtained from Taconic (Hudson, N.Y.), and were allowed to acclimate to the animal facilities at the University of Pittsburgh for 1 week prior to initiation of study. Mice were housed in microisolator cages and allowed ISDPRO autoclavable rodent chow (PMI Nutrition International, Inc., Brentwood, Mo.) and mice received water ad libitum. Body weights and tumor size were measured twice weekly and clinical observations were made twice daily.
Tumor Lines. A375 human melanoma xenografts were obtained from the DCTD Tumor Repository (Fredrick, Md.) and were mouse antigen production test-negative. A375 tumors were expanded in culture and injected (1×10^7 cells/mouse) subcutaneously into passage mice. The A375 tumors were harvested when they were 1 to 2 g and were implanted as approximately 25-mg fragments subcutaneously on the fight flank of SCID mice by aseptic techniques. […] Pharmacokinetic and microdialysis studies were performed when the tumors were approximately 1000 to 1500 mm^3 (1 to 1.5 g) in size.
Formulation and Administration. S-CKD602 is a pegylated liposomal formulation of CKD-602. The clinical formulation of S-CKD602 was used in this study (Alza Corp., Mountain View Calif.) (Zamboni et al., Final results of a phase I and pharmacokinetic study of STEALTH liposomal CKD-602 (S-CKD602) in subjects with advanced solid tumors. Proceedings of ASCO […];82s:2006). Approximately 80% of the lipid in S-CKD602 liposome is fully hydrogenated soy phosphatidylcholine and cholesterol. In addition, methoxypolyethylene glycol is covalently bound to phosphatidylethanolamine and a component of the lipid bilayer. The mean particle size of the S-CKD602 was approximately 110 nm. CKD-602 is encapsulated in the core of the liposome with an encapsulation efficiency of greater than 90%. The drug-to-lipid ratio of S-CKD602 is approximately […] CKD-602 per milligram of lipid. In the S-CKD602 formulation, the CKD-602 concentration was 0.1 mg/mL. The doses of S-CKD602 refer to actual doses of CKD-602. S-CKD602 was administered at 1 mg/kg IV push via a tail vein over approximately 1 min. This dose is one-half the maximum tolerated dose (MTD) in mice. The dose of S-CKD602 administered was based on the maximum volume of drug allowed to be administered IV by the study's IACUC.
Non-liposomal CKD602 was administered at 30 mg/kg IV push via the tail vein. This dose is approximately the MTD for a single dose of non-liposomal CKD-602 in mice. Non-liposomal CKD-602 was prepared at 3 mg/mL in 270 mM mannitol and 0.4 mM tartaric acid in a 5% dextrose solution at pH 3.6. The vehicle control for S-CKD602 and non-liposomal CKD-602 was 0.9% NaCI and 270 mM mannitol and 0.4 mM tartaric acid in a 5% dextrose solution at pH 3.6, respectively.
Pharmacokinetic Studies. Due to limited sample volume, the pharmacokinetic and microdialysis studies were performed in separate groups of mice. Pharmacokinetic studies of S-CKD602 were performed after administration of vehicle, and at 5 min, 0.25, 0.5, 1, 2, 4, 7, 16, 24, 48, and 72 h after administration. […]

[2] = mice; IV push
[3] = Microdialysis study of tumor ECF disposition of CKD-602
Experimental: At all other microdialysis sample intervals, probe recovery was estimated using camptothecin as a tracer agent.
The HPLC system consisted of a Finnigan Specta Systems AS3000 autosampler and P4000 quarternary pump (Thermo Finnigan, Waltham, Mass.) with a Phenomenex Synergi Hydro-RP 80A (4 um, 100×2 mm) analytical column (Phenomenex, Torrance, Calif.). The isocratic mobile phase consisted of 0.1% formic acid in methanol:water (35:85, v/v) and was pumped at 0.2 mL/min. Injection volume was 10 pL and the run time was 10 min. […] The insert probe temperature was set at 400° C. with 3 kV ion spray voltage and 20 V orifice voltage. Nitrogen gas flow was fixed at 75 p.s.i. at the tank head unit. The system was operated with ThermoFinnigan Xcaliber software.

[4] = brain, single IV dose (S-CKD602 1 mg/kg; non-liposomal 30 mg/kg)
[5] = fat, single IV dose (S-CKD602 1 mg/kg; non-liposomal 30 mg/kg)
[6] = kidney, single IV dose (S-CKD602 1 mg/kg; non-liposomal 30 mg/kg)
[7] = liver, single IV dose (S-CKD602 1 mg/kg; non-liposomal 30 mg/kg)
[8] = muscle, single IV dose (S-CKD602 1 mg/kg; non-liposomal 30 mg/kg)
[9] = plasma, single IV dose (S-CKD602 1 mg/kg; non-liposomal 30 mg/kg)
[10] = spleen, single IV dose (S-CKD602 1 mg/kg; non-liposomal 30 mg/kg)
[11] = tumor, single IV dose (S-CKD602 1 mg/kg; non-liposomal 30 mg/kg)
[12] = tumor ECF by microdialysis, S-CKD602 (1 mg/kg), Non-Liposomal CKD-602 (30 mg/kg) IV

For CC[C@@]1(O)C(=O)OCc2c1cc1n(c2=O)Cc2c-1nc1ccccc1c2CCNC(C)C [Non-Liposomal CKD-602], the “AUC, sum total CKD-602, Brain” value [1, 4] was 849 ng·h/mL, the “Cmax, sum total CKD-602, Brain” value [1, 4] was 572 ng/mL and the “Tlast, sum total CKD-602, Brain” value [1, 4] was 7 h. For the same compound, the “Tmax, sum total CKD-602, Brain” value [1, 4] was 4.8 min, the “Cmax, sum total CKD-602, Fat” value [1, 5] was 7,321 ng/mL and the “Tlast, sum total CKD-602, Fat” value [1, 5] was 24 h. For the same compound, the “Tmax, sum total CKD-602, Fat” value [1, 5] was 15 min, the “AUC, sum total CKD-602, Kidney” value [1, 6] was 56,267 ng/mL · h and the “Cmax, sum total CKD-602, Kidney” value [1, 6] was 68,497 ng/mL. The “Tlast, sum total CKD-602, Kidney” value [1, 6] was 24 h, the “Tmax, sum total CKD-602, Kidney” value [1, 6] was 4.8 min and the “AUC, sum total CKD-602, Liver” value [1, 7] was 68,620 ng/mL · h. The “Cmax, sum total CKD-602, Liver” value [1, 7] was 69,000 ng/mL, the “Tlast, sum total CKD-602, Liver” value [1, 7] was 16 h and the “Tmax, sum total CKD-602, Liver” value [1, 7] was 240 min. For the same compound, the “Cmax, sum total CKD-602, Muscle” value [1, 8] was 12,383 ng/mL, the “Tlast, sum total CKD-602, Muscle” value [1, 8] was 24 h and the “Tmax, sum total CKD-602, Muscle” value [1, 8] was 4.8 min. The “overall distribution in muscle compared with fat” value ([1]; non-liposomal CKD-602 30 mg/kg IV, muscle vs fat) was 3 fold, the “AUC, sum total CKD-602, Fat” value ([1]; peritoneal cavity fat, single IV dose (S-CKD602 1 mg/kg; non-liposomal 30 mg/kg)) was 8,280 ng/mL · h and the “Plasma Sum Total AUC(0-inf)” value ([1]; plasma, S-CKD602 (1 mg/kg), Non-Liposomal CKD-602 (30 mg/kg) IV) was 9,117 ng/mL · h. For the same compound, the “Tlast, sum total CKD-602, Plasma” value ([1]; plasma, last detectable time, single IV dose (S-CKD602 1 mg/kg; non-liposomal 30 mg/kg)) was 16 h, the “Cmax, sum total CKD-602, Plasma” value [1, 9] was 6,959 ng/mL and the “Tmax, sum total CKD-602, Plasma” value [1, 9] was 4.8 min. For the same compound, the “Tmax, sum total CKD-602, Plasma” value ([1]; plasma, single IV dose (S-CKD602 1 mg/kg; non-liposomal 30 mg/kg), listed as non-liposomal CKD-602) was 4.98 min, the “AUC, sum total CKD-602, Plasma” value ([1]; plasma, single IV dose (S-CKD602 1 mg/kg; non-liposomal CKD-602 30 mg/kg)) was 9,117 ng/mL · h and the “AUC, sum total CKD-602, Muscle” value ([1]; skeletal muscle, single IV dose (S-CKD602 1 mg/kg; non-liposomal 30 mg/kg)) was 24,485 ng/mL · h. For the same compound, the “AUC, sum total CKD-602, Spleen” value [1, 10] was 23,124 ng/mL · h, the “Cmax, sum total CKD-602, Spleen” value [1, 10] was 14,724 ng/mL and the “Tlast, sum total CKD-602, Spleen” value [1, 10] was 24 h. For the same compound, the “Tmax, sum total CKD-602, Spleen” value [1, 10] was 15 min, the “tissues with the highest exposures of CKD-602” value ([1]; sum total CKD-602 in tissues) was “liver and kidney” and the “Tumor Sum Total(0-inf)” value ([1]; tumor homogenate AUC, S-CKD602 (1 mg/kg), Non-Liposomal CKD-602 (30 mg/kg) IV) was 11,661 ng/mL · h. For the same compound, the “Cmax, sum total CKD-602, Tumor” value [1, 11] was 3,688 ng/mL, the “Tlast, sum total CKD-602, Tumor” value [1, 11] was 24 h and the “Tmax, sum total CKD-602, Tumor” value [1, 11] was 30 min. The “MTD for a single dose” value [2] was ~30 mg/kg, the “CKD-602 in tumor ECF detectable until” value ([3]; detectable from 10 min, microdialysis) was 19.25 h and the “variation of CKD-602 concentration in tumor ECF at individual time points” value ([3]; during the collection intervals) was 4- to 5 fold. The “Time >1 ng/mL In Tumor ECF” value [3, 12] was “˜20 h” and the “Tumor ECF AUC(0-inf)” value [3, 12] was 639 ng·h/mL.
